Data published in patent US20250340574A1, “MODULATORS OF CYSTIC FIBROSIS TRANSMEMBRANE CONDUCTANCE REGULATOR” (Vertex Pharmaceuticals Incorporated, priority 2022, published 2025).
Read-outs that look alike come from different tables or passages of the source.

Legend:
[1] = amide bond, 13-membered ring
[2] = molecular target: T1, CFTR (F508del/MF-HBE cells) (Homo sapiens, UniProt P13569, DEL508-508); assay: Ussing chamber assay of CFTR-mediated short-circuit currents, Assay D (single concentration of 1 μM); assay type: cell-based; conditions: with 44 nM potentiator and 18 μM Tezacaftor, 18-24 hours, 20% human serum
T1 construct: human bronchial epithelial (HBE) cells derived from CF subjects heterozygous for F508del and a minimal function CFTR mutation (F508del/MF-HBE); endogenous in cells; host or cells: Primary human bronchial epithelial cells from CF subjects (F508del/MF genotype), differentiated at an air-liquid interface
T1 sequence (P13569 with tags, fused parts or gaps DEL508-508): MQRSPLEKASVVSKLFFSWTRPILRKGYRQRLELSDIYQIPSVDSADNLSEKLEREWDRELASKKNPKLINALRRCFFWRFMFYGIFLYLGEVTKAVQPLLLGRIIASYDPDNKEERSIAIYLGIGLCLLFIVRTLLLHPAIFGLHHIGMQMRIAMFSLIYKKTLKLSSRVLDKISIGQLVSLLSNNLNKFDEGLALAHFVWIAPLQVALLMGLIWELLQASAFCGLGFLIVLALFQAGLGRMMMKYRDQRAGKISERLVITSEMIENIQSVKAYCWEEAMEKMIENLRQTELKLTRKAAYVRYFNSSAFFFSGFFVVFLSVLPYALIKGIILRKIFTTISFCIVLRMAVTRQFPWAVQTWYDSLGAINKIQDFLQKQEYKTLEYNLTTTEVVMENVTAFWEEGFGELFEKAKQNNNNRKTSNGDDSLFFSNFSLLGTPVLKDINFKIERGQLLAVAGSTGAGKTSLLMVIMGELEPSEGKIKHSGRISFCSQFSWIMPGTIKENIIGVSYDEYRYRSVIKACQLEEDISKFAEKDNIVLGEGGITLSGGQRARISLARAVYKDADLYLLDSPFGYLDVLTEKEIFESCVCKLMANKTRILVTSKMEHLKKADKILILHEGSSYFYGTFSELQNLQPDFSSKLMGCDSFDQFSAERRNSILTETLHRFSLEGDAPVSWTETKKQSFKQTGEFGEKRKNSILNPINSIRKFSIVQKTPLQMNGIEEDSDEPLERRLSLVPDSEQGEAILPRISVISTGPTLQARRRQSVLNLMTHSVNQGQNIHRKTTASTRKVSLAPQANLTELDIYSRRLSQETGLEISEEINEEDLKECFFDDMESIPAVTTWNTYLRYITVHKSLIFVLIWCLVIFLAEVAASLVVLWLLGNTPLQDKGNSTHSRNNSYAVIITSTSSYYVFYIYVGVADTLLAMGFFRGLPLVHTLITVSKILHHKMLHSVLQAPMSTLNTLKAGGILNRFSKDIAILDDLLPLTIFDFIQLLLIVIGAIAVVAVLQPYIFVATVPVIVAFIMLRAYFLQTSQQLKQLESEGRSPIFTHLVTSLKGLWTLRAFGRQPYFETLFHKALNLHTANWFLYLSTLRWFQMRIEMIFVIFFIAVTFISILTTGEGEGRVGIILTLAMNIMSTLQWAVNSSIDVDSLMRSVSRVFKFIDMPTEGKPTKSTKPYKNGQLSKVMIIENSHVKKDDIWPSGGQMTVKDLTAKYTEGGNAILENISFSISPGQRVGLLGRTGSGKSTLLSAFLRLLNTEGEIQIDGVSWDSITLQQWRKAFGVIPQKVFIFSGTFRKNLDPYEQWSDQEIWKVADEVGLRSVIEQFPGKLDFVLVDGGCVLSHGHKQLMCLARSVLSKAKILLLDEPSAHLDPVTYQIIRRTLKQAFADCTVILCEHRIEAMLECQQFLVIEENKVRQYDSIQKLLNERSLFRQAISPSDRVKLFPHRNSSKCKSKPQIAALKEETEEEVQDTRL
Outline: (§1)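 F508del/MF-HBE cells were preincubated 18–24 h at 37 °C in 20% human serum with corrector plus 18 μM tezacaftor and either 33 nM (concentration series) or 44 nM (1 μM single point) of the aminotrifluoromethyl triazatricyclic potentiator. Ussing chamber, Vhold=0 mV, 37 °C; forskolin 20 μM stimulation, CFTR ISC taken as inhibitor-cocktail-sensitive current.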

[3] = molecular target: T1, CFTR (F508del/MF-HBE cells); assay: Ussing chamber assay of CFTR-mediated short-circuit currents, Assay C (0.026 μM to 25 μM, 6 concentrations); assay type: cell-based; conditions: with 33 nM potentiator and 18 μM Tezacaftor, 20% human serum
Outline: as §1

[4] = from Cc1cccc(C)c1-c1cc(OC[C@@H](CC(C)(C)C)NCc2cn3ccc(Br)cc3n2)nc(NS(=O)(=O)c2cccc(C(=O)O)c2)n1; amide bond; 13-membered ring; CDMT/NMM; DMF; 28.2 mM; 3.08 h

| D activity at 1 μM (%) [2] | Emax ([3]; 18-24 hours, read-out: C Max activity (%)) [%] | EC50 [3] [µM] | Structure (SMILES) | ring closure, isolated yield ([1]; from Cc1cccc(C)c1-c1cc(OC[C@@H](CC2(C)CC2)NCc2cnc3oc(Br)cc3n2)nc(NS(=O)(=O)c2cccc(C(=O)O)c2)n1, CDMT?, 16.0 h) [%] | ring closure, isolated yield ([1]; from Cc1cccc(C)c1-c1cc(OCC(NCc2cnc3oc(C4CC4)cc3n2)C(C(C)C)C(C)C)nc(NS(=O)(=O)c2cccc(C(=O)O)c2)n1, CDMT/NMM, DMF, 15.0 mM, 68.0 h) [%] | ring closure, crude yield [4] [%] |
| --- | --- | --- | --- | --- | --- | --- |
| ++ (++ is 30-60%) |  |  | Cc1cccc(C)c1-c1cc2nc(n1)NS(=O)(=O)c1cccc(c1)C(=O)N(Cc1cnc3oc(Br)cc3n1)[C@H](CC1(C)CC1)CO2 [Compound I-254, (11R)-12-[(6-bromofuro[2,3-b]pyrazin-2-yl)methyl]-6-(2,6-dimethylphenyl)-11-[(1-methylcyclopropyl)methyl]-2,2-dioxo-9-oxa-2λ^6-thia-3,5,12,19-tetrazatricyclo[12.3.1.14,8]nonadeca-1(18),4(19),5,7,14,16-hexaen-13-one] | 65 |  |  |
| +++ (+++ is >60%) | > 60 | < 1 | Cc1cccc(C)c1-c1cc2nc(n1)NS(=O)(=O)c1cccc(c1)C(=O)N(Cc1cnc3oc(C4CC4)cc3n1)C(C(C(C)C)C(C)C)CO2 (single isomer, unassigned) [Compound I-177, 12-[(6-cyclopropylfuro[2,3-b]pyrazin-2-yl)methyl]-6-(2,6-dimethylphenyl)-11-(1-isopropyl-2-methyl-propyl)-2,2-dioxo-9-oxa-2λ^6-thia-3,5,12,19-tetrazatricyclo[12.3.1.14,8]nonadeca-1(18),4(19),5,7,14,16-hexaen-13-one] |  | 31 |  |
|  |  |  | Cc1cccc(C)c1-c1cc2nc(n1)NS(=O)(=O)c1cccc(c1)C(=O)N(Cc1cn3ccc(Br)cc3n1)[C@H](CC(C)(C)C)CO2 |  |  | 90 |
